# In patent US9492554B2, “Methods and compositions related to viral inhibition” (Clemson University Research Foundation (CURF), priority 2009, dated 2016):
# Columns and labels:
# [1] = tested on: HIVNL4-3 in MT-2 cells; experiment: Release of reverse transcriptase into the culture supernatant; assay type: cell-based, HIV; conditions: for Release of reverse transcriptase into the culture supernatant, Day 2: mean of triplicate infections (SD), microM: DPA119 24, DPA52 25, DPA53 9, DPA54 17, DPA55 4, DPA56 8, DPA121 25, virus control 46,029; for Release of reverse transcriptase into the culture supernatant, Day 4 / Release of reverse transcriptase into the culture supernatant, Day 6: mean of triplicate infections; for Release of reverse transcriptase into the culture supernatant, Day 4: virus control 928,112; for Release of reverse transcriptase into the culture supernatant, Day 6: virus control 1,078,741
# Source text: The disclosed conjugates also reduce the amount of reverse transcriptase (RT) released into the cell culture supernatant upon in vitro cell culture experiments (Table 14 below). […] It is possible that even though the cells are positive for HIV, they are making much fewer unspliced transcripts, and thus the virion release into the media remains suppressed. […] Anti-HIV activities can be routinely checked by measuring the percentage of cells positive for HIV antigens using immunofluorescence assay (IFA) and for the release of pelletable reverse transcriptase (RT) into the supernatant. For these assays, 500,000 MT-2 cells in 1 ml of media were added to the wells of a 24 well tissue culture plate. Next, 0.5 ml of 4× concentrated compound was added to triplicate wells of the plate. The cells and compounds were incubated for 1 hr at 37 C. Finally, 0.5 ml of HIVNL4-3, produced in H9 cells (a CD4+ lymphoblastoid cell line), 100,000 cpm of RT activity per well, was added to each well. Virus control wells contained no compounds. This inoculum is at a multiplicity of infection less than 1. […] Next, cells were resuspended in the media and 0.5 mls of the total remaining volume was removed for IFA. Cells were combined from their triplicate infections, pelleted, and the enriched cells were air-dried onto glass slides. The dried cells were fixed in acetonemethanol (50:50). After fixing, cells were stained with HIV immunoglobulin, washed in PBS, and counter-stained with FITC-conjugated goat and human IgG. Slides were washed in PBS and the percentage of HIV-positive cells was determined by epifluorescence (Robinson et al. […] The supernatants from each well were precipitated at 4 C overnight in a solution including 30% polyethylene glycol. After precipitation, precipitate was lysed in a solution containing Triton X100, Tris buffer, and DTT. RT activity of each aliquot was determined as incorporation of 3H-dTTP into a poly rA-oligo dT template. After a one hour assay at 37 C, the incorporated dTTP was precipitated onto a ZetaProbe (BioRad) membrane. Slots were excised and placed into liquid scintillation cocktail. After overnight incubation, counts per minute for each sample was determined on a beta counter. Results were calculated as cpm/ml of original culture supernatant (Robinson et al.
# [2] = tested on: HIVNL4-3 in MT-2 cells; experiment: HIV antigen synthesis in treated cells, immunofluorescence assay (IFA); assay type: cell-based; conditions: for percentage of cells positive for HIV antigens, Day 2: MT-2 cells, microM: DPA119 24, DPA52 25, DPA53 9, DPA54 17, DPA55 4, DPA56 8, DPA121 25, virus control 15%; for percentage of cells positive for HIV antigens, Day 4 / percentage of cells positive for HIV antigens, Day 6: same concentrations, virus control 100%
# Method: Anti-HIV activities can be routinely checked by measuring the percentage of cells positive for HIV antigens using immunofluorescence assay (IFA) and for the release of pelletable reverse transcriptase (RT) into the supernatant. For these assays, 500,000 MT-2 cells in 1 ml of media were added to the wells of a 24 well tissue culture plate. Next, 0.5 ml of 4× concentrated compound was added to triplicate wells of the plate. The cells and compounds were incubated for 1 hr at 37 C. Finally, 0.5 ml of HIVNL4-3, produced in H9 cells (a CD4+ lymphoblastoid cell line), 100,000 cpm of RT activity per well, was added to each well. Virus control wells contained no compounds. This inoculum is at a multiplicity of infection less than 1. On days 2, 4, and 6, 0.75 mls of supernatants were removed and placed into individual microfuge tubes for RT assay. Next, cells were resuspended in the media and 0.5 mls of the total remaining volume was removed for IFA. Cells were combined from their triplicate infections, pelleted, and the enriched cells were air-dried onto glass slides. The dried cells were fixed in acetonemethanol (50:50). After fixing, cells were stained with HIV immunoglobulin, washed in PBS, and counter-stained with FITC-conjugated goat and human IgG. Slides were washed in PBS and the percentage of HIV-positive cells was determined by epifluorescence (Robinson et al. J Acquire Immune Defic Syndr 2:33-42, 1989).
# [3] = tested on: cells
# [4] = tested on: TAR RNA; experiment: UV melting of TAR RNA in presence of ligands (Tm, ΔTm); assay type: binding, HIV-1; conditions: for ΔTm: Melting point stabilization of HIV-TAR RNA by Neo Neo dimers, Table 11
# Method: The reactions were done in the presence of 10 mM sodium cacodylate, 0.5 mM EDTA, 0.1 mM MgCl2 pH 7.0. The heating rate was 0.3° C./min.
# UV melting studies of TAR were performed in the presence and absence of various ligands (FIG. 13).
# [5] = molecular target: HIV-1 TAR RNA; experiment: HIV-1 TAR RNA competition FRET binding assay (Tat peptide probe); conditions: 100 nM TAR RNA, 100 nM Tat peptide, 25° C., 60 min
# Method: Before used, HIV-1 TAR RNA (5′-GGC AGA UCUGAG CCU GGG AGC UCU CUG CC-3′, Thermo Scientific) in 10 μM batch in sterile water was heated to 95° C. for 4.5 min, and then cooled rapidly in ice bath for 5 min. This snap-cooling causes the RNA to adopt the kinetically favored hairpin rather than thermodynamically favored duplexes.
# The relative affinity of each polyamine for HIV-1 TAR RNA was determined using Fluorescence Resonance Energy Transfer (FRET)-based competitive binding assay with a fluorescein-labeled HIV-1 Tat peptide as described in the literature. The fluorescence experiments were performed with a Spectra Max Fluorimeter (Molecular Devices) at 25° C., with excitation and emission wavelengths of 495 and 570 nm, respectively. All samples were prepared in 96 well plates in 1×TK buffer (50 mM Tris, 20 mM KCl, pH=7.4) with 0.1% Trixton-100 (Sigma).
# To a solution of 100 nM HIV-1 TAR RNA and 100 nM fluorescein-labeled HIV-1 Tat peptide, appropriate concentrations (0 nM to 100 μM) of the antagonists were added at 25° C.; total volume of the incubation solution was 80 μL. After 60 min, fluorescence changes of the sample solution were determined by the Spectra Max Fluorimeter Detector.
Compound,"Release of reverse transcriptase into the culture supernatant, Day 2 [1]","Release of reverse transcriptase into the culture supernatant, Day 4 [1]","Release of reverse transcriptase into the culture supernatant, Day 6 [1]","percentage of cells positive for HIV antigens, Day 2 [2]","percentage of cells positive for HIV antigens, Day 4 [2]","percentage of cells positive for HIV antigens, Day 6 [2]",5% Toxicity microM [3],IC50 ([5]; Table 18),other results
C/C(CCc1cn(C[C@H]2O[C@@H](O[C@H]3C(O[C@H]4OC(CN)C(O)[C@H](O)C4N)C(N)C[C@@H](N)C3O)[C@@H](O)C2O[C@H]2O[C@@H](CN)C(O)C(O)C2N)nn1)=C(/C)CCc1cn(C[C@H]2O[C@@H](O[C@H]3C(O[C@H]4OC(CN)C(O)[C@H](O)C4N)C(N)C[C@@H](N)C3O)[C@@H](O)C2O[C@H]2O[C@@H](CN)C(O)C(O)C2N)nn1 (some centres unmarked) [DPA 55],"20,072 (3,748) cpm/ml","107,933 cpm/ml","305,277 cpm/ml",3-5%,30%,100%,8 µM,–,–
NCC1O[C@H](OC2C(N)C[C@@H](N)C(O)[C@H]2O[C@@H]2O[C@H](Cn3cc(CCCCCCc4cn(C[C@H]5O[C@@H](O[C@H]6C(O[C@H]7OC(CN)C(O)[C@H](O)C7N)C(N)C[C@@H](N)C6O)[C@@H](O)C5O[C@H]5O[C@@H](CN)C(O)C(O)C5N)nn4)nn3)C(O[C@H]3O[C@@H](CN)C(O)C(O)C3N)[C@@H]2O)C(N)[C@@H](O)C1O (some centres unmarked) [DPA 56],"15,989 (2,523) cpm/ml","105,704 cpm/ml","412,475 cpm/ml",5-7%,40%,100%,34 µM,–,–
NCC1O[C@H](OC2C(N)C[C@@H](N)C(O)[C@H]2O[C@@H]2O[C@H](Cn3cc(COCCCCCCCCOCc4cn(C[C@H]5O[C@@H](O[C@H]6C(O[C@H]7OC(CN)C(O)[C@H](O)C7N)C(N)C[C@@H](N)C6O)[C@@H](O)C5O[C@H]5O[C@@H](CN)C(O)C(O)C5N)nn4)nn3)C(O[C@H]3O[C@@H](CN)C(O)C(O)C3N)[C@@H]2O)C(N)[C@@H](O)C1O (some centres unmarked) [DPA 58],–,–,–,–,–,–,–,–,ΔTm [4]: 5.4 °C; IC50 ([5]; Table 17): 0.061 ± 0.013 µM
CN1CCN(c2ccc3nc(-c4ccc(OCc5cn(CCCCCCn6cc(CCCCc7cn(C[C@H]8OC(OC9C(O)[C@H](N)CC(N)[C@H]9O[C@H]9OC(CN)[C@@H](O)C(O)C9N)C(O)C8O[C@H]8OC(CN)[C@@H](O)C(O)C8N)nn7)nn6)nn5)cc4)[nH]c3c2)CC1 (some centres unmarked) [DPA115],–,–,–,–,–,–,–,–,"ΔTm (° C.) ([4]; TAR RNA with ligand vs control, Table 10): 4.1 °C; Tm (° C.) ([4]; TAR RNA with ligand, control without ligand 69.3): 73.4 °C; IC50 ([5]; Table 17): 99.4 ± 21 µM"
NCC1O[C@H](OC2C(N)C[C@@H](N)C(O)[C@H]2O[C@@H]2O[C@H](Cn3cc(COCCCCCCCCCCCCOCc4cn(C[C@H]5O[C@@H](O[C@H]6C(O[C@H]7OC(CN)C(O)[C@H](O)C7N)C(N)C[C@@H](N)C6O)[C@@H](O)C5O[C@H]5O[C@@H](CN)C(O)C(O)C5N)nn4)nn3)C(O[C@H]3O[C@@H](CN)C(O)C(O)C3N)[C@@H]2O)C(N)[C@@H](O)C1O (some centres unmarked) [DPA 60],–,–,–,–,–,–,–,–,ΔTm [4]: 3.24 °C; IC50 ([5]; Table 17): 0.067 ± 0.009 µM
"NC[C@@H]1O[C@H](O[C@H]2[C@@H](O)[C@H](O[C@@H]3[C@@H](O)[C@H](N)C[C@H](N)[C@H]3O[C@H]3O[C@H](CO)[C@@H](O)[C@H](O)[C@H]3N)O[C@@H]2CO)[C@H](N)[C@@H](O)[C@@H]1O [DPA 502, paromomycin, reference compound]",–,–,–,–,–,–,–,11.4 ± 3.3 µM,–
NCC1O[C@H](OC2C(N)C[C@@H](N)C(O)[C@H]2O[C@@H]2O[C@H](Cn3cc(CCCc4cn(C[C@H]5O[C@@H](O[C@H]6C(O[C@H]7OC(CN)C(O)[C@H](O)C7N)C(N)C[C@@H](N)C6O)[C@@H](O)C5O[C@H]5O[C@@H](CN)C(O)C(O)C5N)nn4)nn3)C(O[C@H]3O[C@@H](CN)C(O)C(O)C3N)[C@@H]2O)C(N)[C@@H](O)C1O (some centres unmarked) [DPA 52],"21,485 (4,574) cpm/ml","347,845 cpm/ml","268,357 cpm/ml",15%,100%,100%,>138 µM,–,–
NCC1O[C@H](OC2C(N)C[C@@H](N)C(O)[C@H]2O[C@@H]2O[C@H](Cn3cc(-c4ccc(-c5cn(C[C@H]6O[C@@H](O[C@H]7C(O[C@H]8OC(CN)C(O)[C@H](O)C8N)C(N)C[C@@H](N)C7O)[C@@H](O)C6O[C@H]6O[C@@H](CN)C(O)C(O)C6N)nn5)cc4)nn3)C(O[C@H]3O[C@@H](CN)C(O)C(O)C3N)[C@@H]2O)C(N)[C@@H](O)C1O (some centres unmarked) [DPA 53],"8,880 (1,373) cpm/ml","45,539 cpm/ml","221,445 cpm/ml",2%,40%,100%,17 µM,–,–
NCC1O[C@H](OC2C(N)C[C@@H](N)C(O)[C@H]2O[C@@H]2O[C@H](Cn3cc(CCCCc4cn(C[C@H]5O[C@@H](O[C@H]6C(O[C@H]7OC(CN)C(O)[C@H](O)C7N)C(N)C[C@@H](N)C6O)[C@@H](O)C5O[C@H]5O[C@@H](CN)C(O)C(O)C5N)nn4)nn3)C(O[C@H]3O[C@@H](CN)C(O)C(O)C3N)[C@@H]2O)C(N)[C@@H](O)C1O (some centres unmarked) [DPA 54],"14,805 (1,309) cpm/ml","165,301 cpm/ml","427,475 cpm/ml",3-5%,80%,100%,69 µM,–,–
"CN[C@@H]1C[C@H](N)[C@@H](O)[C@H](OC2O[C@H](CO)[C@H](O)[C@@H]3OC4(O[C@H](C(N)CO)[C@H](O)[C@H](O)[C@H]4O)O[C@@H]23)[C@H]1O (some centres unmarked) [DPA 504, hygromycin, reference compound]",–,–,–,–,–,–,–,> 500 µM,–
"ribostamycin [DPA 508, reference compound]",–,–,–,–,–,–,–,146 ± 38 µM,–
"NC[C@H]1O[C@H](O[C@H]2[C@H](O)[C@@H](O[C@H]3O[C@H](CO)[C@@H](O)[C@H](N)[C@H]3O)[C@H](N)C[C@@H]2N)[C@H](O)[C@@H](O)[C@@H]1O [DPA 503, kanamycin, reference compound]",–,–,–,–,–,–,–,95.4 ± 20.4 µM,–
"lividomycin [DPA 507, reference compound]",–,–,–,–,–,–,–,92.5 ± 21.9 µM,–
